Results from patent US9817000B2, “Method for identifying compounds that modulate a T2R taste receptor” (The Regents of the University of California, priority 1999, dated 2017).

Molecular target: T1, mT2R8 (Mus musculus, UniProt Q9JKT3)
T1 construct: expressed in transfected cells; host or cells: HEK-293 cells (PEAKrapid) expressing Gα15
T1 sequence (Q9JKT3 1-297): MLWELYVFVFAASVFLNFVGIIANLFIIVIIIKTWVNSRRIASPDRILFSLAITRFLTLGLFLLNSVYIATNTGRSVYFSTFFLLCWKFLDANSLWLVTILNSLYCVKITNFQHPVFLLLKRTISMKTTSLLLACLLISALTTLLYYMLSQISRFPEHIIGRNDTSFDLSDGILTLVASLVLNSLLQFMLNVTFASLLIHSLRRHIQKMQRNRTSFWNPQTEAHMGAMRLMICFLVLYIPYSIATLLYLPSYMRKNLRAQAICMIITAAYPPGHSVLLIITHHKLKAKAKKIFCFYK
Assay: FURA-2 [Ca2+]i imaging in HEK-293 cells expressing Gα15 and rho-mT2R8
Assay type: cell-based
Conditions: for [Ca2+]i response (FURA-2): 1.5 mM denatonium
Source text: In this system, receptor activation leads to increases in intracellular calcium [Ca2+]i, which can be monitored at the single cell level using the FURA-2 calcium-indicator dye (Tsien et al., Cell Calcium 6:145-157 (1985)). To test and optimize Gα15 coupling, two different GPCRs, a Gαi-coupled μ-opioid receptor (Reisine, Neuropharm. 34:463-472 (1995)) and a Gαq-coupled mGluR1 receptor (Masu et al., Nature 349:760-765 (1991)), were used. Transfection of these receptors into HEK-293 cell produced robust, agonist-selective, and Gα15-dependent Ca^2+ responses (FIG. 1).
A number of studies have shown that many GPCRs, in particular sensory receptors, require specific “chaperones” for maturation and targeting through the secretory pathway (Baker et al., Embo J 13:4886-4895 (1994); Dwyer et al., Cell 93:455-466 (1998)). Recently, Krautwurst et al. (Cell 95:917-926 (1998)) generated chimeric receptors consisting of the first 20 amino acids of rhodopsin and various rodent olfactory receptors. These were targeted to the plasma membrane and functioned as odorant receptors in HEK-293 cells. To determine whether rhodopsin sequences can also help target T2Rs to the plasma membra, rhodopsin-T2R chimeras (rho-T2Rs) were constructed. […] Similar results were obtained with 11 human and 16 rodent T2Rs (see below). To further enhance the level of T2R expression, rho-T2Rs were placed under the control of a strong EF-1α promoter, and introduced as episomal plasmids into modified HEK-293 cells expressing Gα15 (pEAKrapid cells).
A bridge overlap PCR extension technique was used to generate rho-T2R chimeras, which contain the first 39 amino acids of bovine rhodopsin in frame with human and rodent T2R coding sequences (Mehta and Singh, Biotechniques 26:1082-1086 (1999). All receptors were cloned into a pEAK10 mammalian expression vector (Edge Biosystems, MD). Modified HEK-293 cells (PEAK^rapid cells; Edge BioSystems, MD) were grown and maintained at 37° C. in UltraCulture medium (Bio Whittaker) supplemented with 5% fetal bovine serum, 100 μg/ml Gentamycin sulphate (Fisher), 1 μg/ml Amphotericin B and 2 mM GlutaMax I (Lifetechnologies). For transfection, cells were seeded onto matrigel coated 24-well culture plates or 35 mm recording chambers. After 24 h at 37° C., cells were washed in OptiMEM medium (Lifetechnologies) and transfected using LipofectAMINE reagent (Lifetechnologies). Transfection efficiencies were estimated by co-transfection of a GFP reporter plasmid, and were typically >70%. Immunofluoresence staining, and activity assays were performed 36-48 h after transfection.
Transfected cells were washed once in Hank's balanced salt solution with 1 mM sodium pyruvate and 10 mM HEPES, pH 7.4 (assay buffer), and loaded with 2 μM FURA-2 AM (Molecular Probes) for 1 h at room temperature. The loading solution was removed and cells were incubated in 200 μl of assay buffer for 1 h to allow the cleavage of the AM ester. […] [Ca^2+]i changes were monitored using a Nikon Diaphot 200 microscope equipped with a 10×/0.5 fluor objective with the TILL imaging system (T.I.L.L Photonics GmbH). Acquisition and analysis of the fluorescence images used TILL-Vision software. Generally, [Ca^2+]i was measured for 80-120 s by sequentially illuminating cells for 200 ms at 340 nm and 380 nm and monitoring the fluorescence emission at 510 nm using a cooled CCD camera. The F340/F380 ratio was analyzed to measure [Ca^2+]i.
Kinetics of activation and deactivation were measured using a bath perfusion system. […]

SMILES: CC[N+](CC)(CC(=O)Nc1c(C)cccc1C)Cc1ccccc1 [denatonium]
- receptor activation: activated
- [Ca2+]i response (FURA-2) (absence of Gα15): No increase in [Ca2+]i
- [Ca2+]i response (FURA-2) (with Gα15): robust Gα15 dependent responses
- increase in [Ca2+]i on tastant stimulation (concentrations as in FIG. 4 (denatonium 5 mM)): increase in [Ca2+]i could be induced
